From US20240109864A1, “SUBSTITUTED PYRAZOLYL PIPERIDINE CARBOXYLIC ACIDS” (BAYER AKTIENGESELLSCHAFT, priority 2020, published 2024)
Counter-ions that a name gives are not always drawn.

Molecular target: T1, recombinant guanylate cyclase reporter cell line (Rattus norvegicus, UniProt P20595)
T1 construct: expressed in transfected cells
T1 sequence (P20595 1-619): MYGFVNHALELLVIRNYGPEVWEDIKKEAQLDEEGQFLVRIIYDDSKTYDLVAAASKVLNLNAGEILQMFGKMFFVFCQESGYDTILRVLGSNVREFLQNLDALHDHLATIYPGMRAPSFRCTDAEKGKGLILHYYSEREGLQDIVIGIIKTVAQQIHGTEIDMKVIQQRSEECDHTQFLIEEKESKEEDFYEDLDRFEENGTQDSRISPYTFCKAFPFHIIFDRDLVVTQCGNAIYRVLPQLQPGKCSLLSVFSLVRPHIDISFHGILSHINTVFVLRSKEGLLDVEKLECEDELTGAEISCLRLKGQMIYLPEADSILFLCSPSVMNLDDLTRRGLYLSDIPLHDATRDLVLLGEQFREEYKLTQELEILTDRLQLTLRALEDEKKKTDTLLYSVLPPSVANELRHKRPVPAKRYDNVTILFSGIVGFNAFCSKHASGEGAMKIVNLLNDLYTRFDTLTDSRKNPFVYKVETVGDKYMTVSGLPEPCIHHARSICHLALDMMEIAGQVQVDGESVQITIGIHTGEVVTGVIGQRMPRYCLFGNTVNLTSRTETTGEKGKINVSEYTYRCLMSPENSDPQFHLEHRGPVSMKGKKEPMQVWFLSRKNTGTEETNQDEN
T1 sequence (P19686 1-690 partner): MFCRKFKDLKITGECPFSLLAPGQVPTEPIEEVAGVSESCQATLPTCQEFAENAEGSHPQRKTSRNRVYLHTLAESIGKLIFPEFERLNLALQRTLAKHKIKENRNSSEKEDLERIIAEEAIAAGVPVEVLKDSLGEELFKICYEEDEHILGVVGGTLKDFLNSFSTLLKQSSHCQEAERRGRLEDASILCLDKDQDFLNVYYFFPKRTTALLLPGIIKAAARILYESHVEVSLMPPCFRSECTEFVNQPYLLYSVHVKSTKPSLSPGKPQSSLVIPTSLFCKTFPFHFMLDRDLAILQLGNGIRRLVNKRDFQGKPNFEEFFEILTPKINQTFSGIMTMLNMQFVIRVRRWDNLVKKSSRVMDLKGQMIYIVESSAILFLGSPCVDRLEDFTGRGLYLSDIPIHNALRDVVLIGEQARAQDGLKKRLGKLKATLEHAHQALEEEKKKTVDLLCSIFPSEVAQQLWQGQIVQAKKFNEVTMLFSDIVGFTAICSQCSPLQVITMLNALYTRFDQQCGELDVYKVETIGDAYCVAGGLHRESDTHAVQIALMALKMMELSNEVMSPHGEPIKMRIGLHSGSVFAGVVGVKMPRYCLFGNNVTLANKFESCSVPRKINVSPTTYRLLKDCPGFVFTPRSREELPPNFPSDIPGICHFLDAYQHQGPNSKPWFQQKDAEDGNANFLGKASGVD
Experiment: Effect on a recombinant guanylate cyclase reporter cell line
Assay type: cell-based
Settings: in some cases mean values from individual determinations; for MEC: MEC = minimum effective concentration; for EC50: half maximal effective concentration
Protocol: The cellular activity of the compounds according to the invention was determined using a recombinant guanylate cyclase reporter cell line, as described in F. Wunder et al., Anal. Biochem. 339, 104-112 (2005).

Row | Compound | MEC | EC50 | MEC (hydrochloride)
1 | O=C(O)c1cnn(C2CCCN(c3cc(Cl)ccc3-c3ccc(N4CCN(CC(F)(F)F)CC4)cc3)C2)c1C(F)(F)F (single isomer, unassigned) [Example 15, 1-[1-[5-Chloro-2-[4-[4-(2,2,2-trifluoroethyl)piperazin-1-yl]phenyl]phenyl]-3-piperidyl]-5-(trifluoromethyl)pyrazole-4-carboxylic acid] | 0.6 nM |  | 
2 | CC(C)C(=O)N1CCN(c2ccc(-c3ccc(Cl)cc3N3CCCC(n4ncc(C(=O)O)c4C(F)(F)F)C3)cc2)CC1 (single isomer, unassigned) [Example 38, 1-[1-[5-Chloro-2-[4-[4-(2-methylpropanoyl)piperazin-1-yl]phenyl]phenyl]-3-piperidyl]-5-(trifluoromethyl)pyrazole-4-carboxylic acid] | 3.0 nM | 15.5 nM | 
3 | CN1CCN(c2ccc(-c3ccc(Cl)cc3N3CCCC(n4ncc(C(=O)O)c4C(F)(F)F)C3)c(Cl)c2)CC1 (single isomer, unassigned) [Example 72, 1-[1-[5-Chloro-2-[2-chloro-4-(4-methylpiperazin-1-yl)phenyl]phenyl]-3-piperidyl]-5-(trifluoromethyl)pyrazole-4-carboxylic acid formic acid adduct] | 10.0 nM | 64.5 nM | 
4 | CCC(=O)N1CCN(c2ccc(-c3ccc(Cl)cc3N3CCCC(n4ncc(C(=O)O)c4C(F)(F)F)C3)cc2)CC1 (single isomer, unassigned) [Example 37, 1-[1-[5-Chloro-2-[4-(4-propanoylpiperazin-1-yl)phenyl]phenyl]-3-piperidyl]-5-(trifluoromethyl)pyrazole-4-carboxylic acid] | 3.0 nM | 15.5 nM | 
5 | O=C(O)c1cnn(C2CCCN(c3cc(Cl)ccc3-c3ccc(N4CCN(C(=O)OCC5CC5)CC4)cc3)C2)c1C(F)(F)F (single isomer, unassigned) [Example 60, 1-[1-[5-Chloro-2-[4-[4-(cyclopropylmethoxycarbonyl)piperazin-1-yl]phenyl]phenyl]-3-piperidyl]-5-(trifluoromethyl)pyrazole-4-carboxylic acid] | 10.0 nM | 47.5 nM | 
6 | O=C(O)c1cnn(C2CCCN(c3cc(Cl)ccc3-c3ccc(N4CCN(CC(F)(F)F)CC4)cc3)C2)c1C(F)(F)F (single isomer, unassigned) [Example 16, 1-[1-[5-Chloro-2-[4-[4-(2,2,2-trifluoroethyl)piperazin-1-yl]phenyl]phenyl]-3-piperidyl]-5-(trifluoromethyl)pyrazole-4-carboxylic acid] | 3.0 nM | 14.4 nM | 
7 | O=C(O)c1cnn(C2CCCN(c3cc(Cl)ccc3-c3ccc(N4CCN(CC5(F)CCC5)CC4)cc3)C2)c1C(F)(F)F (single isomer, unassigned) [Example 23, 1-[1-[5-Chloro-2-[4-[4-[(1-fluorocyclobutyl)methyl]piperazin-1-yl]phenyl]phenyl]-3-piperidyl]-5-(trifluoromethyl)pyrazole-4-carboxylic acid hydrochloride] | 3.0 nM | 27.5 nM | 
8 | O=C(O)c1cnn(C2CCCN(c3cc(Cl)ccc3-c3ccc(N4CCN(CC(F)(F)F)CC4)nc3)C2)c1C(F)(F)F (single isomer, unassigned) [Example 74, 1-[1-[5-Chloro-2-[6-[4-(2,2,2-trifluoroethyl)piperazin-1-yl]-3-pyridyl]phenyl]-3-piperidyl]-5-(trifluoromethyl)pyrazole-4-carboxylic acid hydrochloride] |  | 10.5 nM | 1.0 nM
9 | CC(C)N1CCN(c2ccc(-c3ccc(Cl)cc3N3CCCC(n4ncc(C(=O)O)c4C(F)(F)F)C3)cc2)CC1 (single isomer, unassigned) [Example 6, 1-[1-[5-Chloro-2-[4-(4-isopropylpiperazin-1-yl)phenyl]phenyl]-3-piperidyl]-5-(trifluoromethyl)pyrazole-4-carboxylic acid hydrochloride] | 10.0 nM | 88 nM | 
10 | CCN1CCN(c2ccc(-c3ccc(Cl)cc3N3CCCC(n4ncc(C(=O)O)c4C(F)(F)F)C3)c(C)c2)CC1 (single isomer, unassigned) [Example 73, 1-[1-[5-Chloro-2-[4-(4-ethylpiperazin-1-yl)-2-methyl-phenyl]phenyl]-3-piperidyl]-5-(trifluoromethyl)pyrazole-4-carboxylic acid hydrochloride] | 30.0 nM | 58 nM | 
11 | O=C(O)c1cnn(C2CCCN(c3cc(Cl)ccc3-c3ccc(N4CCN(CC(F)(F)F)CC4)nc3)C2)c1C(F)(F)F (single isomer, unassigned) [Example 77, 1-[1-[5-Chloro-2-[6-[4-(2,2,2-trifluoroethyl)piperazin-1-yl]-3-pyridyl]phenyl]-3-piperidyl]-5-(trifluoromethyl)pyrazole-4-carboxylic acid] | 30.0 nM | 82.5 nM | 

More lines, now with the values ahead:

Row | MEC | EC50 | MEC (hydrochloride) | Compound
12 | 3.0 nM | 9.4 nM |  | O=C(O)c1cnn(C2CCCN(c3cc(Cl)ccc3-c3ccc(N4CCN(C(=O)C56CC(F)(C5)C6)CC4)cc3)C2)c1C(F)(F)F (single isomer, unassigned) [Example 51, 1-[1-[5-Chloro-2-[4-[4-(3-fluorobicyclo[1.1.1]pentane-1-carbonyl)piperazin-1-yl]phenyl]phenyl]-3-piperidyl]-5-(trifluoromethyl)pyrazole-4-carboxylic acid]
13 |  | 3.6 nM | 1.0 nM | O=C(O)c1cnn(C2CCCN(c3cc(Cl)ccc3-c3ccc(N4CCN(CC5CC(F)(F)C5)CC4)cc3)C2)c1C(F)(F)F (single isomer, unassigned) [Example 20, 1-[1-[5-Chloro-2-[4-[4-[(3,3-difluorocyclobutyl)methyl]piperazin-1-yl]phenyl]phenyl]-3-piperidyl]-5-(trifluoromethyl)pyrazole-4-carboxylic acid hydrochloride]
14 |  | 5.5 nM | 3.0 nM | O=C(O)c1cnn(C2CCCN(c3cc(Cl)ccc3-c3ccc(N4CCN(C[C@@H]5C[C@@H]5F)CC4)cc3)C2)c1C(F)(F)F (single isomer, unassigned) [Example 28, hydrochloride]
15 | 1.0 nM | 4.8 nM |  | N#CCCN1CCN(c2ccc(-c3ccc(Cl)cc3N3CCCC(n4ncc(C(=O)O)c4C(F)(F)F)C3)cc2)CC1 (single isomer, unassigned) [Example 5, 1-[1-[5-Chloro-2-[4-[4-(2-cyanoethyl)piperazin-1-yl]phenyl]phenyl]-3-piperidyl]-5-(trifluoromethyl)pyrazole-4-carboxylic acid]
16 | 1.0 nM | 4.2 nM |  | O=C(O)c1cnn(C2CCCN(c3cc(Cl)ccc3-c3ccc(N4CCN(C(=O)C5CC5)CC4)cc3)C2)c1C(F)(F)F (single isomer, unassigned) [Example 42, 1-[1-[5-Chloro-2-[4-[4-(cyclopropanecarbonyl)piperazin-1-yl]phenyl]phenyl]-3-piperidyl]-5-(trifluoromethyl)pyrazole-4-carboxylic acid]
17 | <0.3 nM | 1.4 nM |  | O=C(O)c1cnn(C2CCCN(c3cc(Cl)ccc3-c3ccc(N4CCN(CCC(F)(F)F)CC4)cc3)C2)c1C(F)(F)F (single isomer, unassigned) [Example 17, 1-[1-[5-Chloro-2-[4-[4-(3,3,3-trifluoropropyl)piperazin-1-yl]phenyl]phenyl]-3-piperidyl]-5-(trifluoromethyl)pyrazole-4-carboxylic acid hydrochloride]
18 | 0.3 nM | 3.9 nM |  | CCC(=O)N1CCC(c2ccc(-c3ccc(Cl)cc3N3CCCC(n4ncc(C(=O)O)c4C(F)(F)F)C3)cc2)CC1 (single isomer, unassigned) [Example 83, 1-[1-[5-Chloro-2-[4-(1-propanoyl-4-piperidyl)phenyl]phenyl]-3-piperidyl]-5-(trifluoromethyl)pyrazole-4-carboxylic acid hydrochloride]
